In the experiment the target is T1, recombinant human 15-PGDH (Homo sapiens, UniProt P15428).
T1 construct: purchased R&D Systems
T1 sequence (P15428 1-266): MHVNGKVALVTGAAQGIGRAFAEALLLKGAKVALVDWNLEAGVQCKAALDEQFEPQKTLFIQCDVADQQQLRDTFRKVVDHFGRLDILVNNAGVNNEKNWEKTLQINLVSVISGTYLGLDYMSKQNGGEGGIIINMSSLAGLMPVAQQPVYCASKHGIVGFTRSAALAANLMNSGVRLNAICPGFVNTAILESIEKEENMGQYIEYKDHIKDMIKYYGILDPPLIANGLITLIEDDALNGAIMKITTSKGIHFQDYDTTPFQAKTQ
Description: 15-PGDH enzyme inhibition test. As to conditions: 4 nM recombinant human 15-PGDH, 30 μM PGE2, 1 mM NAD+, 60 minutes after starting the reaction; read-out: IC50 Value. It counts as biochemical. The gist of the method: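 4 nM recombinant human enzyme pre-incubated with compound 12 min at room temperature in 50 mM Tris-HCl pH 8.0 with 0.01% Tween 20 and 0.01% bovine gamma globulin. Reaction started with 30 μM PGE2 and 1 mM NAD+, read after 60 min by fluorescence (ex 340/em 440 nm). IC50 from concentration-response curve.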
Regarding `Cn1nc2cc(N3CCc4cc(C(=O)N5CCCCC5)cnc43)ccn2c1=O` [Example 1-109], the IC50 (in general, the concentration that gives 50% inhibition) was less than 10 nM. In the case of `COCCN(C)C(=O)c1cnc2c(c1)OCCN2c1ccn2c(=O)n(C)nc2c1` [Example 8-106] it was less than 10 nM; in that of `Cn1nc2cc(N3CCOc4cc(C(=O)N5CCC[C@@H]5C(=O)O)cnc43)ccn2c1=O` [Example 35-2], more than 100 nM; in that of `Cn1nc2cc(N3CCCc4cc(C(=O)N5CCC[C@H](CF)C5)cnc43)ccn2c1=O` [Example 1-112], less than 10 nM. As for `CN1Cc2cc(N3CCCc4cc(C(=O)N5CCCCC5)cnc43)cnc2C1=O` [Example 1-67], the half-maximal inhibitory concentration (IC50) is less than 10 nM. As for `O=C1NCc2cc(N3CCOc4cc(C(=O)N5CCCCC5)cnc43)ncc21` [Example 14-9], the IC50 was less than 10 nM.

Turning to `Cn1nc2cc(N3CCOc4cc(C(=O)N5CCCCC5)ccc43)ccn2c1=O` [Example 1-25], the IC50 is less than 10 nM. For the compound `COCn1nc2cc(N3CCOc4cc(C(=O)N5CCC(F)(F)CC5)ccc43)ccn2c1=O` [Example 1-154], the IC50 is less than 10 nM. As to `O=C(O)c1ccc(N2CCOc3cc(C(=O)N4CCC[C@H](F)C4)cnc32)cc1` [Example 4-8], the IC50 is less than 10 nM. `COC(=O)c1ccc(N2CCCc3cc(C(=O)N4CCCCC4)ccc32)cc1` [Example 1-131]: the IC50 is less than 10 nM. The result for `Cn1nc2cc(N3CCCOc4cc(C(=O)N5CCC[C@H](F)C5)cnc43)ccn2c1=O` [Example 8-63] reads less than 10 nM; that for `CCn1nc2cc(N3CCOc4cc(C(=O)N5CCC5)cnc43)ccn2c1=O` [Example 8-16], less than 10 nM; that for `CN1CCN(C(=O)c2cnc3c(c2)OCCN3c2ccc3c(c2)CN(C)C3=O)CC1` [Example 8-189], less than 10 nM. `C[C@@H]1CCCN(C(=O)c2cnc3c(c2)OCCCN3c2ccn3c(=O)n(C)nc3c2)C1` [Example 8-60]: the IC50 was less than 10 nM.

As for `COC(=O)c1cccc(N2CCOc3cc(C(=O)N4CCCCC4)cnc32)c1` [Example 1-262], the IC50 was less than 10 nM.

For the compound `CCn1nc2cc(N3CCCc4cc(C(=O)N5CCC(C)CC5)cnc43)ccn2c1=O` [Example 8-161], the IC50 was less than 10 nM. With `CC1CN(C(=O)c2cnc3c(c2)OCCN3c2ccn3c(=O)n(C)nc3c2)CCC1(F)F` (stereo not shown) [Example 8-47], the IC50 was less than 10 nM.

In the case of `Cn1nc2cc(N3CCOc4cc(C(=O)N5CC(F)(F)C5)cnc43)ccn2c1=O` [Example 8-30], the IC50 is less than 10 nM. As to `CNC(=O)c1ccc(N2CCOc3cc(C(=O)N4CCCCC4)cnc32)cn1` [Example 6-22], the IC50 was less than 10 nM.

`C[C@@H]1CCCCN1C(=O)c1cnc2c(c1)OCCN2c1ccc2c(c1)CN(C)C2=O` [Example 8-195]: the IC50 is less than 10 nM.

`Cn1nc2cc(N3CCCOc4cc(C(=O)N5CCCCCC5)cnc43)ccn2c1=O` [Example 8-59]: the IC50 was less than 10 nM.

In the case of `CN1Cc2cc(N3CCOc4cc(C(=O)N5CCc6ccccc6C5)cnc43)ccc2C1=O` [Example 8-192], the half-maximal inhibitory concentration (IC50) was less than 10 nM.

The values are drawn from patent US12577217B2, “15-PGDH inhibitor” (KYORIN Pharmaceutical Co., Ltd., priority 2019, dated 2026).
